Among the data in patent US9090605B2, “Substituted 5-,6- and 7-membered heterocycles, medicaments containing such compounds, and their use” (Vitae Pharmaceuticals, Inc., priority 2010, dated 2015) are IC50 values, retold here.

The structures appear in SMILES notation.

The IC50 is the concentration that gives 50% inhibition.

T1 sequence (P28845 whole entry): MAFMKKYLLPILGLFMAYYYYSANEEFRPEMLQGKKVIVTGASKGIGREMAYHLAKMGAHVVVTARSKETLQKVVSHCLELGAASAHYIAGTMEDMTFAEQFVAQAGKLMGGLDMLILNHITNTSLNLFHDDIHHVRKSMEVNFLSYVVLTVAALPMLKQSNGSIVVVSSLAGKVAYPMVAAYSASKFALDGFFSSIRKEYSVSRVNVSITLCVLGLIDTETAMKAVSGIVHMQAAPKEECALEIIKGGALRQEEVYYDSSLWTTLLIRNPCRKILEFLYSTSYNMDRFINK

For one experiment, the target named is T1, 11β-HSD1 (Homo sapiens, UniProt P28845). As to the kind of experiment: In vitro inhibition of 11β-HSD1, HTRF detection of cortisol generated by human liver microsomes (biological test example 1). Format: biochemical. On the set-up: detecting cortisol generated from cortisterone by human liver microsomes; from tissue; host or cells: human liver microsomes. Particulars: 1 hour at 37° C., cortisone 80 nM, NADPH 200 μM, read-out: IC50, inhibitory activity on 11β-HSD 1. The procedure:
Briefly, compounds were incubated for 1 hour at 37° C. in Tris buffer (20 mM tris, 5 mM EDTA, pH 6.0) containing NADPH (200 μM) and cortisone (80 nM). Cortisol generated in the reaction was then detected with a competitive immunoassay, involving two HTRF conjugates: cortisol linked to XL665 and anti-cortisol antibody labeled with Europium cryptate. The incubation period for detection reaction was typically 2 hours. The amount of cortisol was determined by reading the time-resolved fluorescence of the wells (Ex 320/75 nm; Em 615/8.5 nm and 665/7.5 nm). The ratio of the two emission signals was then calculated (Em665*10000/Em615). […] Each assay also contained a calibration curve with cortisol to transform the fluorescent data into cortisol concentrations. Percent inhibition (% CTL) of each compound was determined relative to the carbenoxolone signal and IC50 curves were generated.
(TR-FRET usually uses a lanthanide donor and a delayed reading to cut background.)
Consider `C[C@@H](c1ccc(-c2ccc(C3(C(N)=O)CCOCC3)nc2)cc1)N1CC[C@](CC(C)(C)O)(c2ccccc2)OC1=O` [Example 50, 4-[5-(4-{(S)-1-[(S)-6-(2-Hydroxy-2-methyl-propyl)-2-oxo-6-phenyl-[1,3]oxazinan-3-yl]-ethyl}-phenyl)-pyridin-2-yl]-tetrahydro-pyran-4-carboxylic acid amide], for which the half-inhibitory concentration (IC50) turned out to be 73 nM. On to `C[C@@H](c1ccc(-c2ccc(C3(S(C)(=O)=O)CC3)cn2)cc1)N1CC[C@](CC(C)(C)O)(c2ccccc2)OC1=O` [Example 25, (S)-6-(2-Hydroxy-2-methyl-propyl)-3-((S)-1-{4-[5-(1-methanesulfonyl-cyclopropyl)-pyridin-2-yl]-phenyl}-ethyl)-6-phenyl-[1,3]oxazinan-2-one], for which the concentration for half-maximal inhibition (IC50) was determined as 84 nM. Same read-out and setting: to `C[C@@H](c1ccc(-c2ccc(C3(C(N)=O)CCCCC3)nc2)cc1)N1CC[C@](CC(C)(C)O)(c2ccccc2)OC1=O` [Example 43, 1-[5-(4-{(S)-1-[(S)-6-(2-Hydroxy-2-methyl-propyl)-2-oxo-6-phenyl-[1,3]oxazinan-3-yl]-ethyl}-phenyl)-pyridin-2-yl]-cyclohexanecarboxylic acid amide] belongs 67 nM; to `C[C@@H](c1ccc(-c2ccc(N3CCC[C@@H]3C(N)=O)nc2)cc1)N1CC[C@](CC(C)(C)O)(c2ccccc2)OC1=O` [Example 53, (R)-1-[5-(4-{(S)-1-[(S)-6-(2-Hydroxy-2-methyl-propyl)-2-oxo-6-phenyl-[1,3]oxazinan-3-yl]-ethyl}-phenyl)-pyridin-2-yl]-pyrrolidine-2-carboxylic acid amide], 43 nM. Regarding `CNC(=O)C1(c2cc(-c3ccc([C@H](C)N4CC[C@](CC(C)(C)O)(c5ccccc5)OC4=O)cc3)ccn2)CC1` [Example 47, 1-[4-(4-{(S)-1-[(S)-6-(2-Hydroxy-2-methyl-propyl)-2-oxo-6-phenyl-[1,3]oxazinan-3-yl]-ethyl}-phenyl)-pyridin-2-yl]-cyclopropanecarboxylic acid methylamide], the 50% inhibitory concentration (IC50) amounted to 65 nM.

For the compound `C[C@@H](c1ccc(-c2ccc(C3(C#N)CC3)nc2)cc1)N1CC[C@](CC(C)(C)O)(c2ccccc2)OC1=O` [Example 2, 1-[5-(4-{(S)-1-[(S)-6-(2-Hydroxy-2-methyl-propyl)-2-oxo-6-phenyl-[1,3]oxazinan-3-yl]-ethyl}-phenyl)-pyridin-2-yl]-cyclopropanecarbonitrile], the half-inhibitory concentration (IC50) is 68 nM.

For a further experiment, the target named is T1, 11β-HSD1. As to the kind of experiment: Inhibition of a microsomal preparation of 11β-HSD1, scintillation proximity assay, microsomes from CHO cells overexpressing human 11β-HSD1 (biological test example 2). It is filed as biochemical. On the set-up: expressed in transfected cells; host or cells: CHO cells (microsomes isolated from them). Particulars: microsomes from CHO cells overexpressing human 11β-HSD1, SPA, [3H]cortisone, 90 minutes at room temperature; read-out: IC50, inhibitory activity on 11β-HSD 1. The procedure: All reactions were carried out at room temperature in 96 well clear flexible PET Microbeta plates (PerkinElmer). The assay begins by dispensing 49 μl of substrate solution [50 mM HEPES, pH 7.4, 100 mM KCl, 5 mM NaCl, 2 mM MgCl2, 2 mM NADPH and 160 nM [^3H]cortisone (1 Ci/mmol)] and mixing in 1 μL of the test compounds in dimethyl sulfoxide previously diluted in half-log increments (8 points) starting at 0.1 mM. After a 10 minute pre-incubation, 50 μL of enzyme solution containing microsomes isolated from CHO cells overexpressing human 11β-HSD1 (10-20 μg/ml of total protein) was added, and the plates were incubated for 90 minutes at room temperature. The reaction was stopped by adding 50 μl of the SPA beads suspension containing 10 μM 18β-glycyrrhetinic acid, 5 mg/ml protein A coated YSi SPA beads (GE Healthcare) and 3.3 μg/ml of anti-cortisol antibody (East Coast Biologics) in Superblock buffer (Bio-Rad). The plates were shaken for 120 minutes at room temperature, and the SPA signal corresponding to [^3H]cortisol was measured on a Microbeta plate reader.
As to `C[C@@H](c1ccc(-c2ccc(=O)n(C3COC3)c2)cc1)N1CC[C@](CC(C)(C)O)(c2ccccc2)OC1=O` [Example 58, (S)-6-(2-Hydroxy-2-methyl-propyl)-3-{(S)-1-[4-(1-oxetan-3-yl-6-oxo-1,6-dihydro-pyridin-3-yl)-phenyl]-ethyl}-6-phenyl-[1,3]oxazinan-2-one], the IC50 worked out at 4.3 nM. On to `C[C@@H](c1ccc(-c2cnc(-n3ccccc3=O)s2)cc1)N1CC[C@](CC(C)(C)O)(c2ccccc2)OC1=O` [Example 36, (S)-6-(2-hydroxy-2-methylpropyl)-3-((S)-1-{4-[2-(2-oxopyridin-1 (2H)-yl)thiazol-5-yl]phenyl}ethyl)-6-phenyl-1,3-oxazinan-2-one], for which the IC50 amounted to 0.8 nM. Still for that read-out and setting: to `C[C@@H](c1ccc(-c2cnc(N3CCNC3=O)nc2)cc1)N1CC[C@](CC(C)(C)O)(c2ccccc2)OC1=O` [Example 28, (S)-6-(2-hydroxy-2-methylpropyl)-3-((S)-1-{4-[2-(2-oxoimidazolidin-1-yl)pyrimidin-5-yl]phenyl}ethyl)-6-phenyl-1,3-oxazinan-2-one] belongs 8.4 nM; to `C[C@@H](c1ccc(-c2cnc(N3CC(F)C3)nc2)cc1)N1CC[C@](CC(C)(C)O)(c2ccccc2)OC1=O` [Example 32, 3-((S)-1-{4-[2-(3-fluoroazetidin-1-yl)pyrimidin-5-yl]phenyl}ethyl)-(S)-6-(2-hydroxy-2-methylpropyl)-6-phenyl-1,3-oxazinan-2-one], 0.7 nM. Still for that read-out and setting: to `C[C@@H](c1ccc(-c2cnc(N3CCN(C)C3=O)nc2)cc1)N1CC[C@](CC(C)(C)O)(c2ccccc2)OC1=O` [Example 29, (S)-6-(2-hydroxy-2-methylpropyl)-3-((S)-1-{4-[2-(3-methyl-2-oxoimidazolidin-1-yl)pyrimidin-5-yl]phenyl}ethyl)-6-phenyl-1,3-oxazinan-2-one] belongs 9.8 nM. Still for that read-out and setting: in the case of `C[C@@H](c1ccc(-c2ccc(N3CCC3)nn2)cc1)N1CC[C@](CC(C)(C)O)(c2ccccc2)OC1=O` [Example 31, 3-((S)-1-{4-[6-(azetidin-1-yl)pyridazin-3-yl]phenyl}ethyl)-(S)-6-(2-hydroxy-2-methylpropyl)-6-phenyl-1,3-oxazinan-2-one] it was 0.9 nM.

For the compound `C[C@@H](c1ccc(-c2ccn(C3CNC3)c(=O)c2)cc1)N1CC[C@](CC(C)(C)O)(c2ccccc2)OC1=O` [Example 27, 3-((S)-1-{4-[1-(azetidin-3-yl)-2-oxo-1,2-dihydropyridin-4-yl]phenyl}ethyl)-(S)-6-(2-hydroxy-2-methylpropyl)-6-phenyl-1,3-oxazinan-2-one], the IC50 was found to be 27.4 nM. Take `C[C@@H](c1ccc(-c2cnc(N3CCC3)nc2)cc1)N1CC[C@](CC(C)(C)O)(c2ccccc2)OC1=O` [Example 34, 3-((S)-1-{4-[2-(azetidin-1-yl)pyrimidin-5-yl)phenyl]ethyl}-(S)-6-(2-hydroxy-2-methylpropyl)-6-phenyl-1,3-oxazinan-2-one]: the half-maximal inhibitory concentration (IC50) came to 1 nM.

In the case of `C[C@@H](c1ccc(-c2ccn(C3COC3)c(=O)c2)cc1)N1CC[C@](CC(C)(C)O)(c2ccccc2)OC1=O` [Example 26, (S)-6-(2-hydroxy-2-methylpropyl)-3-((S)-1-{4-[1-(oxetan-3-yl)-2-oxo-1,2-dihydropyridin-4-yl]phenyl}ethyl)-6-phenyl-1,3-oxazinan-2-one], the IC50 came out at 5.2 nM. Regarding `C[C@@H](c1ccc(-c2cccc(N3CCCCC3=O)n2)cc1)N1CC[C@](CC(C)(C)O)(c2ccccc2)OC1=O` [Example 39, (S)-6-(2-hydroxy-2-methylpropyl)-3-((S)-1-{4-[6-(2-oxopiperidin-1-yl)pyridin-2-yl]phenyl}ethyl)-6-phenyl-1,3-oxazinan-2-one], the half-maximal inhibitory concentration (IC50) is 3.7 nM.

Consider `C[C@@H](c1ccc(-c2cnc(N3CCCC3=O)nc2)cc1)N1CC[C@](CC(C)(C)O)(c2ccccc2)OC1=O` [Example 30, (S)-6-(2-hydroxy-2-methylpropyl)-3-((S)-1-{4-[2-(2-oxopyrrolidin-1-yl)pyrimidin-5-yl)phenyl]ethyl}-6-phenyl-1,3-oxazinan-2-one], for which the IC50 was found to be 3.2 nM. On the same count and under the same terms, in the case of `C[C@@H](c1ccc(-c2cccc(N3CCOCC3)n2)cc1)N1CC[C@](CC(C)(C)O)(c2ccccc2)OC1=O` [Example 40, (S)-6-(2-hydroxy-2-methylpropyl)-3-{(S)-1-[4-(6-morpholinopyridin-2-yl)phenyl]ethyl}-6-phenyl-1,3-oxazinan-2-one] it was 1.1 nM; in that of `C[C@@H](c1ccc(-c2cnc(N3CC(O)C3)nc2)cc1)N1CC[C@](CC(C)(C)O)(c2ccccc2)OC1=O` [Example 35, (S)-6-(2-hydroxy-2-methylpropyl)-3-((S)-1-{4-[2-(3-hydroxyazetidin-1-yl)pyrimidin-5-yl]phenyl}ethyl)-6-phenyl-1,3-oxazinan-2-one], 2.8 nM; in that of `C[C@@H](c1ccc(-c2ccnc(N3CCOCC3)n2)cc1)N1CC[C@](CC(C)(C)O)(c2ccccc2)OC1=O` [Example 38, (S)-6-(2-hydroxy-2-methylpropyl)-3-{(S)-1-[4-(2-morpholinopyrimidin-4-yl)phenyl]ethyl}-6-phenyl-1,3-oxazinan-2-one], 2.3 nM. On to `C[C@@H](c1ccc(-c2cccc(-n3ccccc3=O)n2)cc1)N1CC[C@](CC(C)(C)O)(c2ccccc2)OC1=O` [Example 41, (S)-6-(2-hydroxy-2-methylpropyl)-3-((S)-1-{4-[6-(2-oxopyridin-1 (2H)-yl)pyridin-2-yl]phenyl}ethyl)-6-phenyl-1,3-oxazinan-2-one], for which the 50% inhibitory concentration (IC50) was 2.3 nM. The same measure, in the same setting: to `C[C@@H](c1ccc(-c2ccc(C3(C(N)=O)CC3)nc2)cc1)N1CC[C@@](CC2CC2)(CC(C)(C)O)OC1=O` [Example 59, 1-[5-(4-{(S)-1-[(S)-6-Cyclopropylmethyl-6-(2-hydroxy-2-methyl-propyl)-2-oxo-[1,3]oxazinan-3-yl]-ethyl}-phenyl)-pyridin-2-yl]-cyclopropanecarboxylic acid amide] belongs 6.5 nM.
